# Experimental data from US9382197B2, “Substituted hydroxamic acids and uses thereof” (Millennium Pharmaceuticals, Inc., priority 2010, dated 2016).
# Target: T1, purified human HDAC6 (Homo sapiens, UniProt Q9UBN7)
# T1 construct: purchased BPS Bioscience 5006
# T1 sequence (Q9UBN7 1-1215): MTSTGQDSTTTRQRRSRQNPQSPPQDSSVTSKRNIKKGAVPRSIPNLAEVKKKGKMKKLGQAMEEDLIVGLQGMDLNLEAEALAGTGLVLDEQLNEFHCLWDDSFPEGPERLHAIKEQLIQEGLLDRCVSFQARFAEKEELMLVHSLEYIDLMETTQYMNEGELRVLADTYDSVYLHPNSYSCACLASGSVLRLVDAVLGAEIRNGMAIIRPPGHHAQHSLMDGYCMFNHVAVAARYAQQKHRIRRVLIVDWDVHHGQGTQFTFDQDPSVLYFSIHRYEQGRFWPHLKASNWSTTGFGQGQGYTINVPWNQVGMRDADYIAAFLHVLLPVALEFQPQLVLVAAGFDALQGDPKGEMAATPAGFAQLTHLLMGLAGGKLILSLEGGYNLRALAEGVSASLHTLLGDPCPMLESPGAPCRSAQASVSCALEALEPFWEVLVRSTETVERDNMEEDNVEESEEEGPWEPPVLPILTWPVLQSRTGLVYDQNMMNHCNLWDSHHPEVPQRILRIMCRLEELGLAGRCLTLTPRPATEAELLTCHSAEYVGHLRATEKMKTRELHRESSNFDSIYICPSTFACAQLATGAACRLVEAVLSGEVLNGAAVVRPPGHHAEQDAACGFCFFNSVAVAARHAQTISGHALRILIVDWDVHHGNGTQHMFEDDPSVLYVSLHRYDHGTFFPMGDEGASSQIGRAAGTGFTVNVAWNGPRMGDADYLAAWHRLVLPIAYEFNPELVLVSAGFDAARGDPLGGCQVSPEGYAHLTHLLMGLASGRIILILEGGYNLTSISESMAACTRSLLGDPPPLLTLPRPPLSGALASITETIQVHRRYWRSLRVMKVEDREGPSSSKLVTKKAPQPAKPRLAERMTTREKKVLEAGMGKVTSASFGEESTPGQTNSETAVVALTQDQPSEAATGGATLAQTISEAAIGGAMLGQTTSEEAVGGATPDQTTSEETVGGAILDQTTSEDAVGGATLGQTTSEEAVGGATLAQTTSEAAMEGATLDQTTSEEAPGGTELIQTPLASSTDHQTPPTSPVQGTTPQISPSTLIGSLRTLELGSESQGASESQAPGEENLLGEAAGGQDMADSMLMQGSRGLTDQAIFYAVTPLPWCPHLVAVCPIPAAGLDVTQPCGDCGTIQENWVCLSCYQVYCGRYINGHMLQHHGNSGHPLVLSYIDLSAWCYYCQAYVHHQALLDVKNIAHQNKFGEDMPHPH
# Assay: HDAC6 Enzyme Assay
# Type: biochemical
# Details: bin: greater than 500 nM and less than 1 μM (lower bound in nM, upper bound in μM)
# How it was run: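 Deacetylated product quantified after trypsin digestion as released AMC (340/460 nm), following a 1 h, 30 °C reaction of human HDAC6 with Ac-RGK(Ac)-AMC peptide, quenched by trichostatin A. IC50 derived from DMSO-normalized curves.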
row,Compound,IC50
1,"CCC[C@H](NC(=O)C(C)(C)C)c1ccc(C(=O)NO)cc1 [Compound I-536, 4-{(1S)-1-[(2,2-dimethylpropanoyl)amino]butyl}-N-hydroxybenzamide]",500 to 1000 nM

# Same assay, conditions: purified human HDAC6, substrate Ac-Arg-Gly-Lys(Ac)-AMC, 1 hour at 30° C.; reported as bins
row,Compound,IC50
1,"CC(C)[C@@H](NC(=O)Nc1ccc(C#N)cc1)c1ccc(C(=O)NO)cc1 [Compound I-525, 4-[(1R)-1-({[(4-cyanophenyl)amino]carbonyl}amino)-2-methylpropyl]-N-hydroxybenzamide]",< 100 nM
2,"CC(C)[C@@H](NC(=O)Nc1ccc2c(c1)CCO2)c1ccc(C(=O)NO)cc1 [Compound I-526, 4-((1R)-1-{[(2,3-dihydro-1-benzofuran-5-ylamino)carbonyl]amino}-2-methylpropyl)-N-hydroxybenzamide]",< 100 nM
3,"C[C@@H](NC(=O)Nc1cccc2ccccc12)c1ccc(C(=O)NO)cc1 [Compound I-527, N-hydroxy-4-((1R)-1-{[(1-naphthylamino)carbonyl]amino}ethyl)benzamide]",< 100 nM

# More lines, now with the values ahead:
row,IC50,Compound
1,< 100 nM,"C[C@@H](NC(=O)Nc1ccc2c(c1)CCO2)c1ccc(C(=O)NO)cc1 [Compound I-528, 4-((1R)-1-{[(2,3-dihydro-1-benzofuran-5-ylamino)carbonyl]amino}ethyl)-N-hydroxybenzamide]"
2,< 100 nM,"CC(C)[C@@H](Nc1nc(C(F)(F)F)cs1)c1ccc(C(=O)NO)cc1 [Compound I-529, N-hydroxy-4-((1R)-2-methyl-1-{[4-(trifluoromethyl)-1,3-thiazol-2-yl]amino}propyl)benzamide]"
